Assays:
[1] = biological target: Ephrin type-B receptor 3 (Homo sapiens) (UniProt P54753); settings: Compound concentration 1000.0 nM
[2] = biological target: Calcium/calmodulin-dependent protein kinase type 1B (Homo sapiens) (UniProt Q6P2M8); settings: Compound concentration 1000.0 nM
[3] = biological target: Mitogen-activated protein kinase kinase kinase 9 (Homo sapiens) (UniProt P80192); settings: Compound concentration 1000.0 nM
[4] = biological target: Inhibitor of nuclear factor kappa-B kinase subunit epsilon (Homo sapiens) (UniProt Q14164); settings: Compound concentration 1000.0 nM
[5] = biological target: Tyrosine-protein kinase ZAP-70 (Homo sapiens) (UniProt P43403); settings: Compound concentration 1000.0 nM
[6] = biological target: Serine/threonine-protein kinase tousled-like 1 (Homo sapiens) (UniProt Q9UKI8); settings: Compound concentration 1000.0 nM
[7] = biological target: Mitogen-activated protein kinase kinase kinase 20 (Homo sapiens) (UniProt Q9NYL2); settings: Compound concentration 1000.0 nM
[8] = biological target: Dual specificity mitogen-activated protein kinase kinase 6 (Homo sapiens) (UniProt P52564); settings: Compound concentration 1000.0 nM
[9] = test system: Receptor-type tyrosine-protein kinase FLT3 (Homo sapiens), P36888 [R834Q]; settings: Compound concentration 1000.0 nM
[10] = test system: Receptor-type tyrosine-protein kinase FLT3 (Homo sapiens), P36888 [D835Y]; settings: Compound concentration 1000.0 nM
[11] = biological target: 1-phosphatidylinositol 3-phosphate 5-kinase (Homo sapiens) (UniProt Q9Y2I7); settings: Compound concentration 1000.0 nM
[12] = biological target: cGMP-dependent protein kinase 2 (Homo sapiens) (UniProt Q13237); settings: Compound concentration 1000.0 nM
[13] = biological target: Activin receptor type-2B (Homo sapiens) (UniProt Q13705); settings: Compound concentration 1000.0 nM
[14] = biological target: Cyclin-dependent kinase 16 (Homo sapiens) (UniProt Q00536); settings: Compound concentration 1000.0 nM
[15] = biological target: Ephrin type-B receptor 1 (Homo sapiens) (UniProt P54762); settings: Compound concentration 1000.0 nM
[16] = test system: Mast/stem cell growth factor receptor Kit (Homo sapiens), P10721 [V559D,T670I]; settings: Compound concentration 1000.0 nM
[17] = biological target: D(3) dopamine receptor (Homo sapiens) (UniProt P35462); settings: Compound concentration 10.0 uM
[18] = biological target: Mitogen-activated protein kinase kinase kinase 4 (Homo sapiens) (UniProt Q9Y6R4); settings: Compound concentration 1000.0 nM
[19] = biological target: T1, 5-hydroxytryptamine receptor 3A (Homo sapiens) (UniProt P46098); settings: Compound concentration 10.0 uM
T1 sequence (whole entry): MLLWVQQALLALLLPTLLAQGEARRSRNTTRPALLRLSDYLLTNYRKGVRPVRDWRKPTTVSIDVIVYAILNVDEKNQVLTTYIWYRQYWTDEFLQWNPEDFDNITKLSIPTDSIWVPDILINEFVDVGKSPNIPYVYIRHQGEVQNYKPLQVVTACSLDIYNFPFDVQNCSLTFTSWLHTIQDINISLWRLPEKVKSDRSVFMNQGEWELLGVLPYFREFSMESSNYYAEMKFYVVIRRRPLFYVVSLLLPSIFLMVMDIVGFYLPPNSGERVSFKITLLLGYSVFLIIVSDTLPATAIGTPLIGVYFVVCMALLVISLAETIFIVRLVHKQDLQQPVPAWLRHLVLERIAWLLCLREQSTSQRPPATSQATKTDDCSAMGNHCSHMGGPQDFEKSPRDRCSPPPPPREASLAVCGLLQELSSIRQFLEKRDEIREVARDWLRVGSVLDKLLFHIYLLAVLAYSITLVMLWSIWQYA

[20] = biological target: Platelet-derived growth factor receptor alpha (Homo sapiens) (UniProt P16234); settings: Compound concentration 1000.0 nM
[21] = biological target: Serine/threonine-protein kinase Nek5 (Homo sapiens) (UniProt Q6P3R8); settings: Compound concentration 1000.0 nM
[22] = biological target: Cyclin-dependent kinase 11A (Homo sapiens) (UniProt Q9UQ88); settings: Compound concentration 1000.0 nM
[23] = biological target: MAP kinase-interacting serine/threonine-protein kinase 1 (Homo sapiens) (UniProt Q9BUB5); settings: Compound concentration 1000.0 nM
[24] = biological target: Calcium/calmodulin-dependent protein kinase type II subunit alpha (Homo sapiens) (UniProt Q9UQM7); settings: Compound concentration 1000.0 nM
[25] = biological target: Protein-tyrosine kinase 6 (Homo sapiens) (UniProt Q13882); settings: Compound concentration 1000.0 nM
[26] = biological target: Phosphatidylinositol 5-phosphate 4-kinase type-2 gamma (Homo sapiens) (UniProt Q8TBX8); settings: Compound concentration 1000.0 nM
[27] = biological target: Serine/threonine-protein kinase MRCK beta (Homo sapiens) (UniProt Q9Y5S2); settings: Compound concentration 1000.0 nM
[28] = biological target: Serine/threonine-protein kinase SIK3 (Homo sapiens) (UniProt Q9Y2K2); settings: Compound concentration 1000.0 nM
[29] = test system: Tyrosine-protein kinase ABL1 (Homo sapiens), P00519 [F317I]; settings: Compound concentration 1000.0 nM
[30] = biological target: Ephrin type-A receptor 7 (Homo sapiens) (UniProt Q15375); settings: Compound concentration 1000.0 nM
[31] = biological target: Cyclin-dependent kinase 8 (Homo sapiens) (UniProt P49336); settings: Compound concentration 1000.0 nM
[32] = biological target: Inhibitor of nuclear factor kappa-B kinase subunit alpha (Homo sapiens) (UniProt O15111); settings: Compound concentration 1000.0 nM
[33] = biological target: Calcium/calmodulin-dependent protein kinase kinase 1 (Homo sapiens) (UniProt Q8N5S9); settings: Compound concentration 1000.0 nM
[34] = biological target: Phosphatidylinositol 4,5-bisphosphate 3-kinase catalytic subunit gamma isoform (Homo sapiens) (UniProt P48736); settings: Compound concentration 1000.0 nM
[35] = biological target: Tyrosine-protein kinase Lck (Homo sapiens) (UniProt P06239); settings: Compound concentration 1000.0 nM
[36] = biological target: Receptor tyrosine-protein kinase erbB-2 (Homo sapiens) (UniProt P04626); settings: Compound concentration 1000.0 nM
[37] = biological target: Serine/threonine-protein kinase 26 (Homo sapiens) (UniProt Q9P289); settings: Compound concentration 1000.0 nM
[38] = biological target: Serine/threonine-protein kinase WNK3 (Homo sapiens) (UniProt Q9BYP7); settings: Compound concentration 1000.0 nM

Chain of Mitogen-activated protein kinase kinase kinase 9 (Homo sapiens) (P80192 whole entry, looked up): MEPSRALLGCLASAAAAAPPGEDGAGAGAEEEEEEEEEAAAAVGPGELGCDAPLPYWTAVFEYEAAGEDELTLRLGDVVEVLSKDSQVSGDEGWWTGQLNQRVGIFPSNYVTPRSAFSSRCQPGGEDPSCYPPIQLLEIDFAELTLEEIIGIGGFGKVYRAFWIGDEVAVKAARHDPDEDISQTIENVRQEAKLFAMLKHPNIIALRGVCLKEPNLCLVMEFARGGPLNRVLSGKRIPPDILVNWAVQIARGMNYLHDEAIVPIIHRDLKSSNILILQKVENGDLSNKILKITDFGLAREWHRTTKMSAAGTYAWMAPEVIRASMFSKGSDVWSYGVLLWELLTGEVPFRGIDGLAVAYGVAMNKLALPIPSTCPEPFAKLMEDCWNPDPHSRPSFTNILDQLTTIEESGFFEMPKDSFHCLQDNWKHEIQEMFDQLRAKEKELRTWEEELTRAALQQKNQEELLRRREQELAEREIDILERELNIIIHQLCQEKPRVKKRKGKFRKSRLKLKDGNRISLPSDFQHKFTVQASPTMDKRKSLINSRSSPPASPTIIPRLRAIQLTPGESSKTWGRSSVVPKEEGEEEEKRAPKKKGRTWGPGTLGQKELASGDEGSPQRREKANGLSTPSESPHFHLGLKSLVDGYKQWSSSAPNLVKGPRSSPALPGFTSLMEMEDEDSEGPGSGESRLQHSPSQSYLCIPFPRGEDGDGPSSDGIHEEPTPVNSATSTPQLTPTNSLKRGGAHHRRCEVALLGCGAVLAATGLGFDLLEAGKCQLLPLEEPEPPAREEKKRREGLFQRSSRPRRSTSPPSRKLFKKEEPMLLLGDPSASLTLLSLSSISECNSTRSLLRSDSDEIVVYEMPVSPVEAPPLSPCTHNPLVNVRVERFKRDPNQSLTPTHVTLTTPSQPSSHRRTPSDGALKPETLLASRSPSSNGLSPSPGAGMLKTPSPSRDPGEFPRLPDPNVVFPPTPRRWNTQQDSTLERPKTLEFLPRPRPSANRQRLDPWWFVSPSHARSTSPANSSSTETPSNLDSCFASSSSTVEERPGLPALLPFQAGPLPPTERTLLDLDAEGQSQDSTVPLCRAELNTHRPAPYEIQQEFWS
Chain of Serine/threonine-protein kinase Nek5 (Homo sapiens) (Q6P3R8 whole entry): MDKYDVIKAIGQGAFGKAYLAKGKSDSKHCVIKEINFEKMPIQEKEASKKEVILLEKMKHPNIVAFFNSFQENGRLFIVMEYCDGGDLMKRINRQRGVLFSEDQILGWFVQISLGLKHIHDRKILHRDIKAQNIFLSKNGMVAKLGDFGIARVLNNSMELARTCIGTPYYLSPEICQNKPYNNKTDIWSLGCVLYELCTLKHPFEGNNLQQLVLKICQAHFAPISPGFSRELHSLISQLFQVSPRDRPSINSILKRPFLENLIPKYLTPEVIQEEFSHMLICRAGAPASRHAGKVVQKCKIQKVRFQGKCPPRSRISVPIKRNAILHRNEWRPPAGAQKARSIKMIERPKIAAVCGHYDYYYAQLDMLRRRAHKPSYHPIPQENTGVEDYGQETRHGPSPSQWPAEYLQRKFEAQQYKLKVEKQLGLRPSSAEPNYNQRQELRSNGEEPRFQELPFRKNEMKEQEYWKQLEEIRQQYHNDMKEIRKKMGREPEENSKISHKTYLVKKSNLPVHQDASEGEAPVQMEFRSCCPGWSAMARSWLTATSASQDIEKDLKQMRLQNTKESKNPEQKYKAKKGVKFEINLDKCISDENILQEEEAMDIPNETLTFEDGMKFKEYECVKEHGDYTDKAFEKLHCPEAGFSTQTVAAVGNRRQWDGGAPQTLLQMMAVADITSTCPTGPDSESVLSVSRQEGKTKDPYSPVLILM
Chain of Mitogen-activated protein kinase kinase kinase 20 (Homo sapiens) (Q9NYL2 2-800 limits assumed): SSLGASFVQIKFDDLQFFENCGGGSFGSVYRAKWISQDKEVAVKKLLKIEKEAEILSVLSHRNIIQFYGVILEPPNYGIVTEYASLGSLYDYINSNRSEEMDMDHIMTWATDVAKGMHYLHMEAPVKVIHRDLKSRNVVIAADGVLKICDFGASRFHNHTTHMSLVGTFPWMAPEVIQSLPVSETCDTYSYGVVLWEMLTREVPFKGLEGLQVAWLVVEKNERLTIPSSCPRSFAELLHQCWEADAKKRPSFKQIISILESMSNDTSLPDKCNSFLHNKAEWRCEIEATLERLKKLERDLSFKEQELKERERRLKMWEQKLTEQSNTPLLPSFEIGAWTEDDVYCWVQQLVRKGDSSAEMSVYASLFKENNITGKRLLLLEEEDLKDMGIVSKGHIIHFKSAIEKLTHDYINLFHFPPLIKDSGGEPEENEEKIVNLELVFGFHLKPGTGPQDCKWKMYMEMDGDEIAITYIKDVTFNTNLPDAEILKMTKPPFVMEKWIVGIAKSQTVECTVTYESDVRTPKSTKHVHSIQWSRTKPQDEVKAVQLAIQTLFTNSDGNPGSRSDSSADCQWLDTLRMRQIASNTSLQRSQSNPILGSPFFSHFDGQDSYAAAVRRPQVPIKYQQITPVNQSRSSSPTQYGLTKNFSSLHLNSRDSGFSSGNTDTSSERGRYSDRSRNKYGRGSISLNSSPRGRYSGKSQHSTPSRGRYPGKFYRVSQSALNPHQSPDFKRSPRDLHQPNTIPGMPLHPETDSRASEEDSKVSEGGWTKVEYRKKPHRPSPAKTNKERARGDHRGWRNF
Chain of Receptor tyrosine-protein kinase erbB-2 (Homo sapiens) (P04626 whole entry): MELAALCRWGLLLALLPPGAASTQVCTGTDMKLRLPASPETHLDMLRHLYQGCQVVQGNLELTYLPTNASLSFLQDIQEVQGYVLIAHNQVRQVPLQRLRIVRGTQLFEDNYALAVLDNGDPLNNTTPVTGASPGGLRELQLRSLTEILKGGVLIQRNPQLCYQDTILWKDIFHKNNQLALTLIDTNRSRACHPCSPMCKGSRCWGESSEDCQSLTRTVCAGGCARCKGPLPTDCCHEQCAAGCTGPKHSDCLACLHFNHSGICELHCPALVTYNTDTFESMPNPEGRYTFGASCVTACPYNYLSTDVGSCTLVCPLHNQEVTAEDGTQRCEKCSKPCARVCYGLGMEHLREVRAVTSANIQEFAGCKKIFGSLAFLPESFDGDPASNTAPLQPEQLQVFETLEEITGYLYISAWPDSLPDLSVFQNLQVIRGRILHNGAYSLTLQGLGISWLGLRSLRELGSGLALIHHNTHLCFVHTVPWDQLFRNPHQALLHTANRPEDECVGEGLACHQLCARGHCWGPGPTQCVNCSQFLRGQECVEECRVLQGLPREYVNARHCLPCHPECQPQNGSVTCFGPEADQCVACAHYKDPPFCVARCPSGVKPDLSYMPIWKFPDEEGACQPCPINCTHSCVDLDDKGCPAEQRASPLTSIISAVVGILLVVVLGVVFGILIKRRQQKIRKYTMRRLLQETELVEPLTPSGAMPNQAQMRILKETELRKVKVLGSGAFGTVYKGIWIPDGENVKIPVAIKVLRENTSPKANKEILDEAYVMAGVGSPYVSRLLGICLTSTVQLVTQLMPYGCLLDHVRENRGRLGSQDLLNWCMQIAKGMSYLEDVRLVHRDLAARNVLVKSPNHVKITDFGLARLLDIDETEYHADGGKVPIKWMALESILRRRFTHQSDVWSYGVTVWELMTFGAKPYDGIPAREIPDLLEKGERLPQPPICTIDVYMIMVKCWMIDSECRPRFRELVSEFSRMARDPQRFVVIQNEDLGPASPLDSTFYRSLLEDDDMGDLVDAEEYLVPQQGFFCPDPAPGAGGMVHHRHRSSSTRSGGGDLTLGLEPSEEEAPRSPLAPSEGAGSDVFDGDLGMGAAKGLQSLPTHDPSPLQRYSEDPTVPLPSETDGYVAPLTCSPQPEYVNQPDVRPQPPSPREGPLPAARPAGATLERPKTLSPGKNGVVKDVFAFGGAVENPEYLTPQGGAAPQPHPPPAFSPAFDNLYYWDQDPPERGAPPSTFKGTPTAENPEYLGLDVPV
Chain of Calcium/calmodulin-dependent protein kinase type II subunit alpha (Homo sapiens) (Q9UQM7 whole entry): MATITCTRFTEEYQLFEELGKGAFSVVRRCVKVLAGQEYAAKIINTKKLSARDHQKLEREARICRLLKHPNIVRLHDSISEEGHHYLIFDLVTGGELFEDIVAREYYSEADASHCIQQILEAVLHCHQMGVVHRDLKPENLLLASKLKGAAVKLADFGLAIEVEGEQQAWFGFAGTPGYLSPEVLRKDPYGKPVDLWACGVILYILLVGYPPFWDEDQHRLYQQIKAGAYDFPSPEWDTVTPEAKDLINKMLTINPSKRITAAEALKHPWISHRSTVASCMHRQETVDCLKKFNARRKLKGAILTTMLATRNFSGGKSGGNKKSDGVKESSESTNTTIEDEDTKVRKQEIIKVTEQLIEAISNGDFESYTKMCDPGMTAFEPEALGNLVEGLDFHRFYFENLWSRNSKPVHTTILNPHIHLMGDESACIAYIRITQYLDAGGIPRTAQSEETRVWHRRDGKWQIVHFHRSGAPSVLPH
Chain of Serine/threonine-protein kinase 26 (Homo sapiens) (Q9P289 2-416 limits assumed): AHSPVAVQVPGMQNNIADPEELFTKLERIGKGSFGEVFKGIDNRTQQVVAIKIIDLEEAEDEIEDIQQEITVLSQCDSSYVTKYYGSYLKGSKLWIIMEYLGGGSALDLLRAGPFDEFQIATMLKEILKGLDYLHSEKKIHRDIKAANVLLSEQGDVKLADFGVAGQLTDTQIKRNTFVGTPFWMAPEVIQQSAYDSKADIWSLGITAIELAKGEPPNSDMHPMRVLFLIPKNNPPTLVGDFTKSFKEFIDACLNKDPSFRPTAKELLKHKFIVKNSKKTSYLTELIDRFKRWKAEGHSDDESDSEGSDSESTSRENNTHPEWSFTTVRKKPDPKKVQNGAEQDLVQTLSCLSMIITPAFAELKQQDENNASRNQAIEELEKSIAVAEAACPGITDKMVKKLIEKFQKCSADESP

O=C(NCc1ncc(C(F)(F)F)cc1Cl)c1ccc2c(c1)C1(CCS(=O)(=O)CC1)[C@H](C1CC1)N2S(=O)(=O)c1ccc(F)cc1 [BAY-784]
inactive: residual activity [1] 100% | residual activity [2] 91% | residual activity [3] 100% | residual activity [4] 77% | residual activity [5] 84% | residual activity [6] 96% | residual activity [7] 100% | residual activity [8] 100% | residual activity [9] 90% | residual activity [10] 100% | residual activity [11] 84% | residual activity [12] 77% | residual activity [13] 90% | residual activity [14] 100% | residual activity [15] 100% | residual activity [16] 100% | inhibition [17] 9.45% | residual activity [18] 100% | inhibition [19] 1.44% | residual activity [20] 90% | residual activity [21] 100% | residual activity [22] 100% | residual activity [23] 74% | residual activity [24] 94% | residual activity [25] 100% | residual activity [26] 100% | residual activity [27] 100% | residual activity [28] 100% | residual activity [29] 83% | residual activity [30] 100% | residual activity [31] 80% | residual activity [32] 77% | residual activity [33] 100% | residual activity [34] 82% | residual activity [35] 100% | residual activity [36] 100% | residual activity [37] 100% | residual activity [38] 86%

O=C(NCc1ncc(C(F)(F)F)cc1Cl)c1ccc2c(c1)C1(CCS(=O)(=O)CC1)[C@@H](C1CC1)N2S(=O)(=O)c1ccc(F)cc1 [BAY-786]
inactive: residual activity [1] 100% | residual activity [2] 96% | residual activity [3] 77% | residual activity [4] 82% | residual activity [5] 72% | residual activity [6] 100% | residual activity [7] 92% | residual activity [8] 100% | residual activity [9] 84% | residual activity [10] 100% | residual activity [11] 73% | residual activity [12] 89% | residual activity [13] 100% | residual activity [14] 80% | residual activity [15] 100% | residual activity [16] 87% | inhibition [17] 3.82% | residual activity [18] 84% | inhibition [19] -1.68% | residual activity [20] 87% | residual activity [21] 86% | residual activity [22] 100% | residual activity [23] 78% | residual activity [24] 90% | residual activity [25] 94% | residual activity [26] 100% | residual activity [27] 100% | residual activity [28] 72% | residual activity [29] 80% | residual activity [30] 100% | residual activity [31] 63% | residual activity [32] 84% | residual activity [33] 72% | residual activity [34] 95% | residual activity [35] 100% | residual activity [36] 100% | residual activity [37] 82% | residual activity [38] 70%
